Test results reported in patent US10570121B2, “Substituted dihydroisoquinolinone compounds” (priority 2014, dated 2020).
Read-outs that look alike come from different tables or passages of the source.

Assays:
WT EZH2 = WT EZH2 (Homo sapiens (Human), UniProt Q15910); test: WT EZH2 nucleosome assay (10X SAM, high SAM conditions); format: biochemical; conditions: 15 uM SAM, Ki app from competitive inhibition fit
Description: (§1) The genes for EZH2, EED, SUZ12, and RBBP4 proteins were cloned into pBacPAK9 vectors (Clontech). RBBP4 was FLAG tagged on the N-terminal end. The baculovirus expressions of these proteins were used to co-infect SF9 insect cells. Insect cell pellets were lysed in a buffer containing 25 mM Tris pH8.0, 300 mM NaCl, 0.5 mM TCEP, complete EDTA-free protease inhibitor (Roche), 0.1% NP-40. The supernatant from the lysate was incubated with FLAG® M2 antibody resin (Sigma). The resin was washed on the chromatography column and eluted with 0.2 mg/ml FLAG peptide. The elute was incubated with omnicleave nucleases (Epicentre Technologies) at 4° C. overnight, then concentrated and loaded onto a Superdex 200 (GE Healthcare) column. The Superdex 200 column was eluted with 25 mM Tris pH8.0, 150 mM NaCl, 0.5 mM TCEP. Fractions containing the PRC2 complex were pooled.
(§2) A. Compound preparation • 1.
(§3) B. Reagent preparation • 1. […] Dilute TCA to 20% in DI water
(§4) C. Enzyme reaction • 1. […] Some compounds were tested under high SAM conditions.
(§5) D. Data analysis • 1. IC50 values were determined by fitting the data to a 4-parameter IC50 equation using proprietary curve fitting software. • 2. For compounds tested under high SAM conditions, Ki^app values were obtained by fitting the dose response curve to a model for competitive inhibition using proprietary curve fitting software. Preparation of HeLa Oligonucleosomes: Reagents • Cell Pellet: 15 L HeLa S3 (Accelgen)+6 L HeLa S3 (in house) • Mnase (Worthington Biochemicals) Equipment • SW-28 Rotor • Dounce Homogenizer/B Pestle Buffers • Lysis: 20 mM Hepes pH 7.5, 0.25M Sucrose, 3 mM MgCl2, 0.5% Nonidet P-40, 0.5 mM TCEP, 1 Roche Protease Tablet • B: 20 mM Hepes pH7.5, 3 mM MgCl2, 0.5 mM EDTA, 0.5 mM TCEP, 1 Roche Protease Tablet • MSB: 20 mM Hepes pH7.5, 0.4 M NaCl, 1 mM EDTA, 5% v/v Glycerol, 0.5 mM TCEP, 0.2 mM PMSF • LSB: 20 mM Hepes pH7.5, 0.1M NaCl, 1 mM EDTA, 0.5 mM TCEP, 0.2 mM PMSF • NG: 20 mM Hepes pH7.5, 1 mM EDTA, 0.4 m NaCl, 0.2 mM PMSF, 0.5 mM TCEP • Storage: 20 mM Hepes pH7.5, 1 mM EDTA, 10% Glycerol, 0.2 mM PMSF, 0.5 mM TCEP Protocol

EZH2 Mutant Y641N = EZH2 Mutant Y641N (Homo sapiens (Human), UniProt Q15910, Y641N); test: EZH2 Mutant Y641N nucleosome assay; format: biochemical; conditions: PRC2 4-protein complex 6 nM, 1.5 μM SAM, HeLa oligonucleosomes
Chain of EZH2 Mutant Y641N (Q15910 whole entry Y641N, looked up): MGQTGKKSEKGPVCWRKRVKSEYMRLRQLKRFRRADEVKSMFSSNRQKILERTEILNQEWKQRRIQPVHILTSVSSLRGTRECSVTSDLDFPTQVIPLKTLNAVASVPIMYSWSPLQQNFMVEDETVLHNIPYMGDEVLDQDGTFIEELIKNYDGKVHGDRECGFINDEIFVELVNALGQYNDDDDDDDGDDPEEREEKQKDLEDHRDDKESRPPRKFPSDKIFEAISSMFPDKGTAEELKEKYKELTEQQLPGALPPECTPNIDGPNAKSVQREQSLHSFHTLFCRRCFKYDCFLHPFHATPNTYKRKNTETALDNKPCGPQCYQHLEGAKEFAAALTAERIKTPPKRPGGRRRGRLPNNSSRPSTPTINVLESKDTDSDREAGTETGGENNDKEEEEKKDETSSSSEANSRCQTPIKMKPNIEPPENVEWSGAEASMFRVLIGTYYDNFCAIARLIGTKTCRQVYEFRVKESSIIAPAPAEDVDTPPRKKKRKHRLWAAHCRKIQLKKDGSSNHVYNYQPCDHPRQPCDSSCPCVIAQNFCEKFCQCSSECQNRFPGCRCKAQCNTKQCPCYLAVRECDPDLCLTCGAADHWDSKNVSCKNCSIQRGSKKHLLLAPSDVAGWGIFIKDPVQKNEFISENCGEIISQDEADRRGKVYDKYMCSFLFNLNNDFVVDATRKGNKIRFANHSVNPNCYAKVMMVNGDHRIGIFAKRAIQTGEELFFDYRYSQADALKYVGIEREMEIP
Chain of EZH2 Mutant Y641N (O75530 whole entry partner, looked up): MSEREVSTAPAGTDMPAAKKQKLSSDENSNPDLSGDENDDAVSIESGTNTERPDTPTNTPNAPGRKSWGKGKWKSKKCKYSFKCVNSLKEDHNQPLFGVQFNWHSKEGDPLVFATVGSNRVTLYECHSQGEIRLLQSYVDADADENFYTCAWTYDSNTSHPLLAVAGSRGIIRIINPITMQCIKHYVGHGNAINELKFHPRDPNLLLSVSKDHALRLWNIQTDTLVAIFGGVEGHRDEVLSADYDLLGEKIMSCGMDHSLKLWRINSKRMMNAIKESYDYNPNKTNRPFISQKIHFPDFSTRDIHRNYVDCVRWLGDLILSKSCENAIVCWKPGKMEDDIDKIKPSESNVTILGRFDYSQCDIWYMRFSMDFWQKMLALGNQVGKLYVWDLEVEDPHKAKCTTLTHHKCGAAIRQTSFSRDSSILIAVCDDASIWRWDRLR
Chain of EZH2 Mutant Y641N (Q15022 whole entry partner, looked up): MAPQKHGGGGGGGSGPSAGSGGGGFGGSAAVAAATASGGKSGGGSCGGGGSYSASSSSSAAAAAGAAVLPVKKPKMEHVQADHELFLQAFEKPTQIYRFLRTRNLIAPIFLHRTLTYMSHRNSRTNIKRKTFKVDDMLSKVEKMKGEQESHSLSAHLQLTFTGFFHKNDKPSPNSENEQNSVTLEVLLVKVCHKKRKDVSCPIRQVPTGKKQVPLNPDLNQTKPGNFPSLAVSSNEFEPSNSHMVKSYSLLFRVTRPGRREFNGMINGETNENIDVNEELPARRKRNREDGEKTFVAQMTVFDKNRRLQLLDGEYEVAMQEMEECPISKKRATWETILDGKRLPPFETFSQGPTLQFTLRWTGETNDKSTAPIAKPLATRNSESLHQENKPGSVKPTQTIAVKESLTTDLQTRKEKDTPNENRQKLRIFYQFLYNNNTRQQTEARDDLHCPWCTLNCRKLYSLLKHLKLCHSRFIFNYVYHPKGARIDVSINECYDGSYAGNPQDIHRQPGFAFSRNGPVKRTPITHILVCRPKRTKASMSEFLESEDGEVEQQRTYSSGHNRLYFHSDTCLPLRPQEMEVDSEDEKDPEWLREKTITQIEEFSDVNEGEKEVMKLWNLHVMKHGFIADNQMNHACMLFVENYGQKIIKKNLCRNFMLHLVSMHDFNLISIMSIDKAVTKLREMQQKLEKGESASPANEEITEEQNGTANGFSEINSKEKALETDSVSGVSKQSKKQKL
Chain of EZH2 Mutant Y641N (Q09028 whole entry partner, looked up): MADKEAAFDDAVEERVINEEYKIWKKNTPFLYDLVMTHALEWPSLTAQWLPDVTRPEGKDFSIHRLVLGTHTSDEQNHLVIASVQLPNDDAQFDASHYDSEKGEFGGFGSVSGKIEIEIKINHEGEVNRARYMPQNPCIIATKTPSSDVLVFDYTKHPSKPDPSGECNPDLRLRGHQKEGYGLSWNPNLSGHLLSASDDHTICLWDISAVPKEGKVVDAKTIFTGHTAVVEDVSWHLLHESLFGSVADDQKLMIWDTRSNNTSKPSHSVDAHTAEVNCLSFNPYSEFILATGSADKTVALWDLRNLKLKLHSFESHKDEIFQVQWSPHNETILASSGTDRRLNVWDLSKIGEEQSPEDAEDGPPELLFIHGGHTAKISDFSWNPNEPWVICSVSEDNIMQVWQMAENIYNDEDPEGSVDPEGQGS
Description: as §1, §2, §3, §4, §5

[1] = read-out: WT EZH2 Nucleosome assay (10X SAM) Ki
[2] = read-out: EZH2 Mutant Y641N Nucleosome assay IC50
[3] = WT EZH2 Nucleosome assay (10X SAM) Ki (μM)
[4] = EZH2 Mutant Y641N Nucleosome assay IC50 (μM)

Chain of WT EZH2 (Q15910 whole entry, looked up): as the sequence (Q15910 whole entry Y641N, looked up) above, with N641Y counted along it
Chain of WT EZH2 (O75530 whole entry partner, looked up): as the sequence (O75530 whole entry partner, looked up) above
Chain of WT EZH2 (Q15022 whole entry partner, looked up): as the sequence (Q15022 whole entry partner, looked up) above
Chain of WT EZH2 (Q09028 whole entry partner, looked up): as the sequence (Q09028 whole entry partner, looked up) above

Ki (WT EZH2; [1]) [nM] | IC50 (EZH2 Mutant Y641N; [2]) [µM] | Ki (WT EZH2; [3]) [nM] | IC50 (EZH2 Mutant Y641N; [4]) [µM] | SMILES
52 | 0.238 |  |  | COc1cc(C)[nH]c(=O)c1CN1CCc2c(C)cc([C@@H](OC)[C@@H]3CCOC3)c(Cl)c2C1=O (single isomer, unassigned) [Example 85, 8-chloro-2-[(4-methoxy-6-methyl-2-oxo-1,2-dihydropyridin-3-yl)methyl]-7-{(S*)-methoxy[(3R*)-tetrahydrofuran-3-yl]methyl}-5-methyl-3,4-dihydroisoquinolin-1(2H)-one]
0.01 | 0.002 |  |  | COc1cc(C)[nH]c(=O)c1CN1CCc2c(Cl)cc(C(C)C3CN(C)C3)c(Cl)c2C1=O (single isomer, unassigned) [Example 87, 5,8-dichloro-2-[(4-methoxy-6-methyl-2-oxo-1,2-dihydropyridin-3-yl)methyl]-7-[1-(1-methylazetidin-3-yl)ethyl]-3,4-dihydroisoquinolin-1 (2H)-one]
28 | 0.122 |  |  | COc1cc(C)[nH]c(=O)c1CN1CCc2c(Cl)cc(C(C)C3CN(C)C3)c(Cl)c2C1=O (single isomer, unassigned) [Example 88, 5,8-dichloro-2-[(4-methoxy-6-methyl-2-oxo-1,2-dihydropyridin-3-yl)methyl]-7-[1-(1-methylazetidin-3-yl)ethyl]-3,4-dihydroisoquinolin-1 (2H)-one]
1 | 0.009 |  |  | Cc1cc(OC(F)F)c(CN2CCc3c(Cl)cc(C(CO)C4CCOC4)c(Cl)c3C2=O)c(=O)[nH]1 (single isomer, unassigned) [Example 92]
159 | 1.33 |  |  | Cc1cc(OC(F)F)c(CN2CCc3c(Cl)cc(C(CO)C4CCOC4)c(Cl)c3C2=O)c(=O)[nH]1 (single isomer, unassigned) [Example 93]
323 | 4.87 |  |  | Cc1cc(OC(F)F)c(CN2CCc3c(Cl)cc(C(CO)C4CCOC4)c(Cl)c3C2=O)c(=O)[nH]1 (single isomer, unassigned) [Example 94]
1 | 0.012 |  |  | Cc1cc(OC(F)F)c(CN2CCc3c(Cl)cc(C(CO)C4CCOC4)c(Cl)c3C2=O)c(=O)[nH]1 (single isomer, unassigned) [Example 95]
204 | 2.99 |  |  | Cc1cc(C)c(CN2CCc3ccc(C(CO)C4CCOC4)c(Cl)c3C2=O)c(=O)[nH]1 (single isomer, unassigned) [Example 96]
3 | 0.027 |  |  | Cc1cc(C)c(CN2CCc3ccc(C(CO)C4CCOC4)c(Cl)c3C2=O)c(=O)[nH]1 (single isomer, unassigned) [Example 97]
1220 | 8.72 |  |  | Cc1cc(C)c(CN2CCc3ccc(C(CO)C4CCOC4)c(Cl)c3C2=O)c(=O)[nH]1 (single isomer, unassigned) [Example 98]
3 | 0.017 |  |  | Cc1cc(C)c(CN2CCc3ccc(C(CO)C4CCOC4)c(Cl)c3C2=O)c(=O)[nH]1 (single isomer, unassigned) [Example 99]
309 | 3.73 |  |  | Cc1cc(C)c(CN2CCc3c(C)cc(C(CO)C4CCOCC4)c(Cl)c3C2=O)c(=O)[nH]1 (single isomer, unassigned) [Example 100]
0.3 | 0.007 |  |  | Cc1cc(C)c(CN2CCc3c(C)cc(C(CO)C4CCOCC4)c(Cl)c3C2=O)c(=O)[nH]1 (single isomer, unassigned) [Example 101]
52 | 0.32 |  |  | Cc1cc(C)c(CN2CCc3c(Cl)cc(C(CO)O[C@@H]4CCOC4)c(Cl)c3C2=O)c(=O)[nH]1 (single isomer, unassigned) [Example 103]
673 | 7.77 |  |  | Cc1cc(C)c(CN2CCc3c(Cl)cc(C(CO)O[C@@H]4CCOC4)c(Cl)c3C2=O)c(=O)[nH]1 (single isomer, unassigned) [Example 104]
1.9 | 0.018 |  |  | CCC(OC)c1cc(Cl)c2c(c1Cl)C(=O)N(Cc1c(OC)cc(C)[nH]c1=O)CC2 (single isomer, unassigned) [Example 107]
1.7 | 0.016 |  |  | CCC(OC)c1cc(Cl)c2c(c1Cl)C(=O)N(Cc1c(OC)cc(C)[nH]c1=O)CC2 (single isomer, unassigned) [Example 108]
16 | 0.152 |  |  | COC(c1cc(Cl)c2c(c1Cl)C(=O)N(Cc1c(C)cc(C)[nH]c1=O)CC2)C1CC[S+]([O-])CC1 (single isomer, unassigned) [Example 114]

Ki (WT EZH2; [1]) [nM] | IC50 (EZH2 Mutant Y641N; [2]) [µM] | Ki (WT EZH2; [3]) [nM] | IC50 (EZH2 Mutant Y641N; [4]) [µM] | SMILES
0.3 | 0.005 |  |  | COC(c1cc(Cl)c2c(c1Cl)C(=O)N(Cc1c(C)cc(C)[nH]c1=O)CC2)C1CC[S+]([O-])CC1 (single isomer, unassigned) [Example 115]
0.1 | 0.003 |  |  | COc1cc(C)[nH]c(=O)c1CN1CCc2c(Cl)cc(C(OC)C3CCN(C=O)CC3)c(Cl)c2C1=O (single isomer, unassigned) [Example 118]
15 | 0.1 |  |  | COc1cc(C)[nH]c(=O)c1CN1CCc2c(Cl)cc(C(OC)C3CCN(C=O)CC3)c(Cl)c2C1=O (single isomer, unassigned) [Example 119]
2 | 0.014 |  |  | COC(c1cc(Cl)c2c(c1Cl)C(=O)N(Cc1c(C)cc(C)[nH]c1=O)CC2)C1(F)CCN(C)CC1 (single isomer, unassigned) [Example 120]
29 | 0.255 |  |  | COC(c1cc(Cl)c2c(c1Cl)C(=O)N(Cc1c(C)cc(C)[nH]c1=O)CC2)C1(F)CCN(C)CC1 (single isomer, unassigned) [Example 121]
73 | 0.236 |  |  | COc1cc(C)[nH]c(=O)c1CN1CCc2c(Cl)cc(C(OC)C3CCN(C(C)=O)CC3)c(Cl)c2C1=O (single isomer, unassigned) [Example 122]
0.2 | 0.005 |  |  | COc1cc(C)[nH]c(=O)c1CN1CCc2c(Cl)cc(C(OC)C3CCN(C(C)=O)CC3)c(Cl)c2C1=O (single isomer, unassigned) [Example 123]
 |  | 58 | 0.892 | COc1cc(C)[nH]c(=O)c1CN1CCc2c(Cl)cc(C(OC)C3CCOC3)c(Cl)c2C1=O (single isomer, unassigned) [Example 124]
 |  | 0.9 | 0.008 | COc1cc(C)[nH]c(=O)c1CN1CCc2c(Cl)cc(C(OC)C3CCOC3)c(Cl)c2C1=O (single isomer, unassigned) [Example 125]
 |  | 56 | 0.165 | COc1cc(C)[nH]c(=O)c1CN1CCc2c(Cl)cc(C(OC)C3CCOC3)c(Cl)c2C1=O (single isomer, unassigned) [Example 126]
 |  | 0.2 | 0.0022 | COc1cc(C)[nH]c(=O)c1CN1CCc2c(Cl)cc(C(OC)C3CCOC3)c(Cl)c2C1=O (single isomer, unassigned) [Example 127]
184 | 1.17 |  |  | COC(c1cc(Cl)c2c(c1Cl)C(=O)N(Cc1c(C)cc(C)[nH]c1=O)CC2)C1CN(C(=O)CO)C1 (single isomer, unassigned) [Example 128]
0.8 | 0.008 |  |  | COC(c1cc(Cl)c2c(c1Cl)C(=O)N(Cc1c(C)cc(C)[nH]c1=O)CC2)C1CN(C(=O)CO)C1 (single isomer, unassigned) [Example 129]
220 | 1.99 |  |  | COc1cc(C)[nH]c(=O)c1CN1CCc2c(C)cc(C(OC)C3CCS(=O)(=O)CC3)c(Cl)c2C1=O (single isomer, unassigned) [Example 130]
0.7 | 0.005 |  |  | COC(c1cc(C)c2c(c1Cl)C(=O)N(Cc1c(C)cc(C)[nH]c1=O)CC2)C1CCS(=O)(=O)CC1 (single isomer, unassigned) [Example 131]
1 | 0.013 |  |  | COC(c1ccc2c(c1Cl)C(=O)N(Cc1c(C)cc(C)[nH]c1=O)CC2)C1CCOC1 (single isomer, unassigned) [Example 132]
837 | 8.64 |  |  | COC(c1ccc2c(c1Cl)C(=O)N(Cc1c(C)cc(C)[nH]c1=O)CC2)C1CCOC1 (single isomer, unassigned) [Example 133]
